Assay results published in patent US20120010229A1, “THERAPEUTIC REGIMENS FOR HEDGEHOG-ASSOCIATED CANCERS” (priority 2010, published 2012).

Experiments:
Ptc^C/C medulloblastoma = assay: Ptc^C/C mouse medulloblastoma model: survival, symptoms, MRI tumor volume; format: in vivo
Text: Transgenic mice were maintained in accordance with the NIH Guide for the Care and Use of Experimental Animals with approval from our Institutional Animal Care and Use Committee. Conditional Patched1 null mice (Ptc^C/C) were generated on a mixed background by breeding mice homozygous for the floxed Ptch1 allele (Adolphe et al., (2006) Cancer Res 66: 2081-2088) to Math1-Cre mice, as previously described (Yang et al. (2008) Cancer Cell 14: 135-145). Mice were genotyped by PCR using genomic DNA using the following primers:
Animal experiments were performed in accordance with the NIH Guide for the Care and Use of Experimental Animals with approval from our Institutional Animal Care and Use Committee. 100% penetrance of medulloblastoma in the Ptc^C/C mice was observed, with all mice displaying symptoms of tumor formation by the time of weaning. Ptc^C/C mice (age ranging from 21-36 days) were randomized to receive either IPI-926 (Infinity Pharmaceuticals) or vehicle control (5% (2-Hydroxylpropyl)-B-Cyclodextrin (HPBCD), Sigma Aldrich) administered via intraperitoneal (IP) injection.
Mice were euthanized using CO2 inhalation, brains were removed and tissue snap frozen for RNA studies or fixed in 10% buffered formalin and processed for histopathological examination. Formalin-fixed tissues were paraffin embedded, cut into 4 um sections and stained with Haematoxylin and Eosin using standard methods.
Magnetic resonance imaging (MRI) was performed using a 3 Tesla MRI system (Philips Achieva, Philips Healthcare, Andover, Mass.) and a custom mouse head coil. Serial MR scans were performed using a 35 minute coronal high-resolution T2-weighted sequence (TE=110 ms, TR=2000 ms, bandwidth=212, 2 NEX or signal averages, a matrix of 256×256 pixels in-plane, slice thickness of 320 microns and an interslice gap of 160 microns). Mice were scanned under halothane anesthesia at enrollment, after 3 weeks of treatment, and after 6 weeks of treatment. Ctx:Cy5.5 bioconjugate (Tumor Paint) was given by intravenous tail vein injection one day prior to animal sacrifice. Biophotonic images were obtained using the Xenogen Spectrum imaging system (Caliper Life Sciences) as previously described (Veiseh et al. (2007) Cancer 67: 6882-6888).
DICOM images were exported from the MRI scanner to a web-based repository (BioScribe) and then imported into ITK-SNAP (version 2.0, available on the world wide web at itksnap.org). Images were first windowed to accentuate tumor/brain contrast, easily observed on the T2-weighted scans. […] Effacement of the fourth ventricle was accompanied by lateral and third ventriculomegaly and transependymal CSF flow. Tumor and enlarged cerebellum was seen to herniate into the internal auditory canals (IAC) bilaterally. After each imaging time-point, using the manual tracing tool, tumor tissue (including the IAC components) was painted in three planes excluding frank cerebrospinal fluid or cystic regions. The resultant segmentation file was saved for later use. Three-dimensional surface-rendered reconstructions were then performed and saved in two standard projections for each tumor analyzed, with the aim of delineating a consistent view of the tumor for comparison between pre- and post-treatment scans and between treatment groups. Automated pixel counting multiplied by image pixel dimensions yielded volumetric measures for each segmentation analysis dataset. In addition to quantitative analysis, pre and post-treatment scans were compared for evaluation of secondary changes such as hydrocephalus, prominent extra-axial spaces, cystic change/necrosis in treated tumor and any evidence of hemorrhage.
Studies were designed to detect differences in event rates that approximately corresponded to a doubling of median improvement in survival of (3 weeks) with 90% power based on simulated power experiments. […]

Tolerability in mice = format: in vivo; details: incl. daily 20 mg/kg for greater than 60 days and once-weekly 70 mg/kg
Text: Studies that are currently underway in pediatric patients and those being planned must consider the permanent changes on cartilage and bone formation observed in young mice as a result of treatment with the HhAntag Smoothened inhibitor (Kimura et al., (2008) Cancer Cell 13: 249-260). The extent to which this on-target toxicity is species specific remains unknown at this time.

[1] = test system: Hedgehog pathway in stromal cells; details: after single administration; cited from earlier work
Pgp/ABCB1 and BCRP = details: mouse, not told
Pgp = Pgp (Homo sapiens, UniProt P08183); assay: Pgp substrate status; format: in vitro ADME
Sequence of Pgp (P08183 whole entry): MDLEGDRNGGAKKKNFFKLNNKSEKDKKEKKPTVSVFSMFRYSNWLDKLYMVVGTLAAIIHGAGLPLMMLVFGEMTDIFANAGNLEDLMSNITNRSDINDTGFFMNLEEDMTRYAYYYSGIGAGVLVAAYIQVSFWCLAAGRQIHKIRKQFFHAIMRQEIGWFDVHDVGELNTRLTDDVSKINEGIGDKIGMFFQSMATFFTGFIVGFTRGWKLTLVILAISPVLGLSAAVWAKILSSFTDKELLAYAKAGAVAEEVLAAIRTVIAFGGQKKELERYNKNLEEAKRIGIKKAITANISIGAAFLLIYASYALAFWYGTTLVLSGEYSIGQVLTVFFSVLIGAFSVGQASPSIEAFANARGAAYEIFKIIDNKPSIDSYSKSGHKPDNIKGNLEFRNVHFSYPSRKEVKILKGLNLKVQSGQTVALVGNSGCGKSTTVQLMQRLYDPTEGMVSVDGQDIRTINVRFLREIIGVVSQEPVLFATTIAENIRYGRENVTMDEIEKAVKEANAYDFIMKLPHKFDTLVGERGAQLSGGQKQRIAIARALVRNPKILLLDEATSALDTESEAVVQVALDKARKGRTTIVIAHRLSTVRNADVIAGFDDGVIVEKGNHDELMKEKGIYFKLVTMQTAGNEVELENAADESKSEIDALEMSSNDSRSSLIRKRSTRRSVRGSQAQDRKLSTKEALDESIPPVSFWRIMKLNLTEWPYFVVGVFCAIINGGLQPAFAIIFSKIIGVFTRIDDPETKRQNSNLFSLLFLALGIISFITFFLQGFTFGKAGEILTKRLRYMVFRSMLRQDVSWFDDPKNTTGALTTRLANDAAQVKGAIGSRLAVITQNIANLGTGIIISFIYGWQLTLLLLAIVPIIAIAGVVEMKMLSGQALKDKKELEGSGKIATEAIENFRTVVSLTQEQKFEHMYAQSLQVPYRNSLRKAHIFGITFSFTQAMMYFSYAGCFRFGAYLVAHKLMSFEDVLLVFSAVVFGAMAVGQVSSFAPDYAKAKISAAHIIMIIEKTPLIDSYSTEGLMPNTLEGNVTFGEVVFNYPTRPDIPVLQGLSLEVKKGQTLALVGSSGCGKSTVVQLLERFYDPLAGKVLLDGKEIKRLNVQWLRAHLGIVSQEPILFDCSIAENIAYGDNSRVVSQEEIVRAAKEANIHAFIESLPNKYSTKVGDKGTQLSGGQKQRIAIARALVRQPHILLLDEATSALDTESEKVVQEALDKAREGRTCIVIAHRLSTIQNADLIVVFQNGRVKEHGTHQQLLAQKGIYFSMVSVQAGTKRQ

[2] = test system: L3.6pl P-lucky liver metastasis; assay: L3.6pl liver metastasis model, Study #1; format: in vivo; details: for H&E staining of liver, tumor cells or metastasis: day 21
Method: Cells: L3.6pl is a pancreatic cancer cell line that has been tagged with the bioluminescence marker, luciferase, and is known to form metastasis in the liver (pl—pancreas to liver). Cells were cultured in RPMI+10% FBS and harvested on the day of implant. A single cell suspension was prepared in PBS at a concentration of 10 million cells per 1 ml of PBS. These cells were kept at 4° C. until implantation.
Model Procedure: Animals were anesthetized and prepared for surgery. The animal's spleen was exposed and 100 μl (1 million cells) of the L3.6pl single cell suspension was injected directly in the spleen towards the splenic vein (intra splenic injection). Once the injection was complete, the splenic artery and splenic vein were ligated, the spleen was excised, and the animals' wounds were closed. Post-op care and analgesia was given for 4 consecutive days and animals were monitored for recovery.
Prior to the procedure listed above 40 animals were separated into 4 groups consisting of 10 animals each.
Animals in group 2 (Pre-Treatment), received IPI-926 every-other-day for 14 days, prior to the intra splenic injection procedure, continuing until the study end.
Animals in group 3 (Day-of-Treatment), received IPI-926 every-other-day beginning on the day of the intra splenic injection procedure, continuing until the study end.
Animals in group 4 (Post-Treatment), received IPI-926 every-other-day beginning 7 days after the intra splenic injection procedure, continuing until the study end.
Results Procedure: Animals were injected with 10 ml/kg of luciferin concentrated at […] via I.P. injection. This luciferin binds to the L3.6pl P-Lucky cells injected on day 0. Utilizing Calipers Xenogen© machine, this cell-luciferin association emits bioluminescence that can be read and quantified (total flux).
Results: The graphs in FIGS. 10A-10B represent the quantification, normalized on each day to the average of vehicle treated animals. This normalization was done using the formula: (1/(average flux of vehicle animals/average flux of group X (group being compared))).

With CC1=C2C[C@H]3[C@@H](CC[C@@H]4C[C@H](NS(C)(=O)=O)CC[C@@]43C)[C@@H]2CC[C@@]2(C1)O[C@@H]1C[C@H](C)CN[C@H]1[C@H]2C [IPI-926] the “fraction of mice with rebound in tumor growth by 6 weeks (MRI)” value (Ptc^C/C medulloblastoma; 20 mg/kg/day, after maximal size reduction at 3 weeks) was “approximately half”, the “tumor volume by MRI” value (Ptc^C/C medulloblastoma; after three weeks of daily administration) was “substantial tumor regression” and the “average time to death after stopping treatment” value (Ptc^C/C medulloblastoma; drug withdrawn after six weeks of daily 20 mg/kg) was no more than 10 days. The “clinical symptoms of medulloblastoma” value (Ptc^C/C medulloblastoma; pilot study, daily IP 20 mg/kg/dose, 19 days of treatment) was “full resolution of clinical symptoms”, the “mice still alive six weeks after starting twice-a-week therapy” value (Ptc^C/C medulloblastoma; six weeks daily then maintenance 20 mg/kg twice per week) was 77% and the survival (Ptc^C/C medulloblastoma; six weeks of daily IPI-926 20 mg/kg IP, vehicle 0%) was 100%. For the same compound, the tolerability (Tolerability in mice) was “well tolerated”, the “Hedgehog pathway inhibition in stromal cells” value [1] was “rapid and sustained Hedgehog pathway inhibition” and the “Pgp protein expression (IHC)” value (Pgp/ABCB1 and BCRP) was “focal increases in Pgp”. For the same compound, the “expression level of BCRP (Western blot)” value (Pgp/ABCB1 and BCRP) was “not significantly increased”, the “expression level of Pgp (Western blot)” value (Pgp/ABCB1 and BCRP) was “not significantly increased” and the Pgp substrate (Pgp) was “Pgp substrate”. The “reduction in flux (bioluminescence) below vehicle” value ([2]; IPI-926 every-other-day from 14 days prior to implant) was 20-25 fold, the “take or growth of metastasis within the liver” value ([2]; day of implant treatment (Day 0)) was “no detectable effect” and the “H&E staining of liver, tumor cells or metastasis” value (“H&E staining of liver” below) ([2]; day of treated group) was “visible metastasis and tumors cells present”. The “survival rate vs vehicle” value ([2]; day of treatment group) was “survival rates similar to vehicle treated animals”, the “take or growth of metastasis within the liver” value ([2]; post implant treatment (Day 7)) was “no detectable effect” and the “H&E staining of liver” value ([2]; post treated group) was “visible metastasis and tumors cells present”. The “survival rate vs vehicle” value ([2]; post treatment group) was “survival rates similar to vehicle treated animals”, the “H&E staining of liver” value ([2]; pre-treatment animal) was “no detectable tumor cells or metastasis” and the “overall survival rate vs vehicle” value ([2]; treatment from 14 days prior to implant) was “doubles the overall survival rate”.
